Values of other authors as cited in US10905116B2, “Antimicrobial fabric assemblies” (Higher Dimension Materials, Inc., priority 2016, dated 2021).

What was measured:
[1] = tested on: bacterium
[2] = tested on: E. coli; settings: against E. coli

[Ag+] [silver ion]
silver ion concentration enough to cause antimicrobial activity ([1]; released from silver nanoparticles confined in nanoscale cages, conditions of normal water, estimated): 50 parts per billion
number of silver ions to kill a single bacterium ([1]; reported): about 100

[Ag] [silver]
MIC value (Minimum Inhibitory Value) [2]: 0.05 to 0.1 mg/L
